# Measured values from ChEMBL document CHEMBL4699613, “Synthesis and biological evaluation of indolylglyoxylamide bisphosphonates, antimitotic microtubule-targeting derivatives of indibulin with improved aqueous solubility” (Bioorg Med Chem Lett, 2020).
# pIC50: −log10 of the molar value.
# Columns and labels:
# Paracentrotus lividus [1] = assay: Antimitotic activity against sea urchin embryo assessed as cleavage alteration measured 2.5 to 5.5 hrs post-fertilization using compound stored for 1 hr in 96% EtOH at room temperature by light microscopy analysis; assay type: functional; conditions: time hrs 2.5-5.5
# Paracentrotus lividus [2] = assay: Induction of microtubule destabilization in sea urchin embryo assessed as embryo spinning measured after 0.5 to 20 hrs; assay type: tissue-based; conditions: time hrs 0.5-20
# Paracentrotus lividus [3] = assay: Antimitotic activity against sea urchin embryo assessed as cleavage alteration measured 2.5 to 5.5 hrs post-fertilization using compound stored for 13 hrs in 96% EtOH at room temperature by light microscopy analysis; assay type: functional; conditions: time hrs 2.5-5.5
# Paracentrotus lividus [4] = assay: Antimitotic activity against sea urchin embryo assessed as cleavage alteration measured 2.5 to 5.5 hrs post-fertilization using compound stored for 2.5 days in 96% EtOH at room temperature by light microscopy analysis; assay type: functional; conditions: time hrs 2.5-5.5
# Paracentrotus lividus [5] = assay: Antimitotic activity against sea urchin embryo assessed as cleavage alteration measured 2.5 to 5.5 hrs post-fertilization using compound stored for 4.5 days in 96% EtOH at room temperature by light microscopy analysis; assay type: functional; conditions: time hrs 2.5-5.5
# Paracentrotus lividus [6] = assay: Antimitotic activity against sea urchin embryo assessed as cleavage arrest measured 2.5 to 5.5 hrs post-fertilization using compound stored for 1 hr in 96% EtOH at room temperature by light microscopy analysis; assay type: functional; conditions: time hrs 2.5-5.5
# Paracentrotus lividus [7] = assay: Antimitotic activity against sea urchin embryo assessed as cleavage arrest measured 2.5 to 5.5 hrs post-fertilization using compound stored for 13 hrs in 96% EtOH at room temperature by light microscopy analysis; assay type: functional; conditions: time hrs 2.5-5.5
# Paracentrotus lividus [8] = assay: Antimitotic activity against sea urchin embryo assessed as cleavage arrest measured 2.5 to 5.5 hrs post-fertilization using compound stored for 2.5 days in 96% EtOH at room temperature by light microscopy analysis; assay type: functional; conditions: time hrs 2.5-5.5
# Paracentrotus lividus [9] = assay: Antimitotic activity against sea urchin embryo assessed as cleavage arrest measured 2.5 to 5.5 hrs post-fertilization using compound stored for 4.5 days in 96% EtOH at room temperature by light microscopy analysis; assay type: functional; conditions: time hrs 2.5-5.5
# Paracentrotus lividus [10] = assay: Antimitotic activity against sea urchin embryo assessed as cleavage alteration measured 3 to 6 hrs post-fertilization by light microscopy analysis; assay type: functional; conditions: time hrs 3-6
# Paracentrotus lividus [11] = assay: Antimitotic activity against sea urchin embryo assessed as cleavage arrest measured 3 to 6 hrs post-fertilization by light microscopy analysis; assay type: functional; conditions: time hrs 3-6
# MCF7 = assay: Cytotoxicity against human MCF7 cells assessed as cell growth inhibition measured after 24 to 48 hrs by SRB assay; assay type: functional, cell-based
# BXPC-3 = assay: Cytotoxicity against human BXPC-3 cells assessed as cell growth inhibition measured after 72 hrs by MTT assay; assay type: functional, cell-based; conditions: BXPC-3, 72 h
# CFPAC-1 = assay: Cytotoxicity against human CFPAC-1 cells assessed as cell growth inhibition measured after 72 hrs by MTT assay; assay type: functional, cell-based; conditions: CFPAC-1, 72 h
# PANC-1 = assay: Cytotoxicity against human PANC-1 cells assessed as cell growth inhibition measured after 72 hrs by MTT assay; assay type: functional, cell-based; conditions: PANC-1, 72 h
# HeLa = assay: Cytotoxicity against human HeLa cells assessed as cell growth inhibition; assay type: functional, cell-based
# SiHa = assay: Cytotoxicity against human SiHa cells assessed as cell growth inhibition; assay type: functional, cell-based
# Ca-Ski = assay: Cytotoxicity against human Ca-Ski cells assessed as cell growth inhibition; assay type: functional, cell-based
# Paracentrotus lividus [12] = assay: Antimitotic activity against sea urchin embryo assessed as cleavage alteration measured 2.5 to 6 hrs post-fertilization by light microscopy analysis; assay type: functional; conditions: time hrs 2.5-6
# Paracentrotus lividus [13] = assay: Antimitotic activity against sea urchin embryo assessed as cleavage arrest measured 2.5 to 6 hrs post-fertilization by light microscopy analysis; assay type: functional; conditions: time hrs 2.5-6
# A549 = assay: Cytotoxicity against human A549 cells assessed as cell growth inhibition; assay type: functional, cell-based
# HCT-116 = assay: Cytotoxicity against human HCT-116 cells assessed as cell growth inhibition; assay type: functional, cell-based
# SK-OV-3 = assay: Cytotoxicity against human SK-OV-3 cells assessed as cell growth inhibition; assay type: functional, cell-based
# PC-3 = assay: Cytotoxicity against human PC-3 cells assessed as cell growth inhibition; assay type: functional, cell-based
# DU-145 = assay: Cytotoxicity against human DU-145 cells assessed as cell growth inhibition; assay type: functional, cell-based
# T47D = assay: Cytotoxicity against human T47D cells assessed as cell growth inhibition; assay type: functional, cell-based
# [14] = Aggregation property of the compound in water; assay type: physicochemical; conditions: buffer
compound,measurement,setting,value
CCOP(=O)(OCC)C(Cn1cc(C(=O)C(=O)Nc2ccc3c(c2)OCCO3)c2ccc(F)cc21)P(=O)(OCC)OCC,EC,Paracentrotus lividus [1],0.5 µM
same,EC,Paracentrotus lividus [2],0.1 µM
same,EC,Paracentrotus lividus [3],0.02 µM
same,EC,Paracentrotus lividus [4],<0.02 µM
same,EC,Paracentrotus lividus [5],<0.01 µM
same,EC,Paracentrotus lividus [6],0.2 µM
same,EC,Paracentrotus lividus [7],0.05 µM
same,EC,Paracentrotus lividus [8],0.02 µM
same,EC,Paracentrotus lividus [9],0.01 µM
O=C(Nc1ccc2c(c1)OCCO2)C(=O)c1c[nH]c2ccccc12,EC,Paracentrotus lividus [2],0.02 µM
same,EC,Paracentrotus lividus [10],0.002 µM
same,EC,Paracentrotus lividus [11],0.005 µM
CCOP(=O)(OCC)C(Cn1cc(C(=O)C(=O)Nc2ccc(OC)cc2)c2ccc(F)cc21)P(=O)(OCC)OCC,EC,Paracentrotus lividus [1],0.5 µM
same,EC,Paracentrotus lividus [2],0.5 µM
same,EC,Paracentrotus lividus [6],0.2 µM
COc1cccc(NC(=O)C(=O)c2c[nH]c3cc(F)ccc23)c1,EC,Paracentrotus lividus [2],> 4 µM
same,EC,Paracentrotus lividus [10],0.2 µM
same,EC,Paracentrotus lividus [11],>4 µM
COc1ccc(NC(=O)C(=O)c2c[nH]c3ccccc23)cc1,EC,Paracentrotus lividus [2],0.2 µM
same,EC,Paracentrotus lividus [10],0.001 µM
same,EC,Paracentrotus lividus [11],0.005 µM
O=P(O)(O)C(O)(Cc1cccnc1)P(=O)(O)O [RISEDRONIC ACID],pIC50,MCF7,3.61
CCOP(=O)(OCC)C(Cn1cc(C(=O)C(=O)Nc2cccc(OC)c2)c2ccc(F)cc21)P(=O)(OCC)OCC,EC,Paracentrotus lividus [1],1 µM
same,EC,Paracentrotus lividus [2],> 4 µM
same,EC,Paracentrotus lividus [6],>4 µM
O=P(O)(O)C(O)(Cn1ccnc1)P(=O)(O)O [ZOLEDRONIC ACID],pIC50,BXPC-3,5.00
same,pIC50,CFPAC-1,5.00
same,pIC50,PANC-1,5.00
same,pIC50,HeLa,5.00
same,pIC50,SiHa,5.00
same,pIC50,Ca-Ski,5.00
CCOP(=O)(OCC)C(Cn1cc(C(=O)C(=O)O)c2ccc(F)cc21)P(=O)(OCC)OCC,EC,Paracentrotus lividus [12],>4 µM
same,EC,Paracentrotus lividus [13],>4 µM
same,EC,Paracentrotus lividus [2],> 4 µM
O=C(Nc1ccncc1)C(=O)c1cn(Cc2ccc(Cl)cc2)c2ccccc12 [INDIBULIN],EC,Paracentrotus lividus [12],0.01 µM
same,EC,Paracentrotus lividus [13],0.02 µM
same,EC,Paracentrotus lividus [2],0.1 µM
same,pIC50,A549,6.40
same,pIC50,HCT-116,7.30
same,pIC50,SK-OV-3,6.70
same,pIC50,PC-3,7.40
same,pIC50,DU-145,7.30
same,pIC50,T47D,7.40
same,CAC,[14],0.00039 mg/mL
